Where a name gives a salt, the structure may show the parent alone. One block for each compound: values may come before it.
Key:
[1] = target: T1, RNase A (Bos taurus, UniProt P61823); test: RNase A inhibition (capturable rRNA target complex); assay type: biochemical; settings: for RNase inactivated: RNase 0.125 μg/ml, 15 min; for % RNase inhibition: 37° C., 15 minutes
T1 sequence (P61823 27-150): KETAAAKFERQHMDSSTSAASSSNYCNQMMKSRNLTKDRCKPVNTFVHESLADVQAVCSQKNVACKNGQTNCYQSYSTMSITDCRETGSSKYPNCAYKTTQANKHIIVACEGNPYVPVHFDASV
Protocol: Though the ability of a hybridization medium to support protease activity is desirable, an equally (or more) important property is the capability of inhibiting nucleases, especially ribonucleases. […] The experimental protocol was a follows:
1) A target complex was prepared by hybridizing target rRNA (from Salmonella extracts), capture probe (dA-676), and ^32 P-labeled 3'-Riboprobe (as earlier described).
2) The target complex was diluted into each of the above four test reagents.
3) RNase A solutions of various concentrations (0-250 μg/ml in […] phosphate buffer pH7) were prepared. Into tubes of the diluted target complex was added RNase A, to one of the final concentrations noted in Table 3 below. The control comprised only phosphate buffer diluent. The mixtures were incubated at 37° C. for 15 minutes. Proteinase K was added to a final concentration of 1.25 mg/ml to stop the nuclease activity.
4) Tailed probes and hybridized complexes were captured on magnetic beads (as previously described), which were washed and counted. The level of RNase inhibition was calculated as follows. [formula]

[2] = Reagent stability; assay type: physicochemical
Protocol: TMA.TFA was prepared by combining equimolar amounts of concentrated Trifluoroacetic acid (Sigma Chemical Co. or Pierce Chemical Co.) and TMA.OH (Sigma Chemical Co. or Southwestern Analytical Chemicals, Inc.) and buffering it with 0.1M phosphate, 0.1M borate, 0.05 mM EDTA (phosphoric acid, boric acid, and EDTA (free acid), neutralized with TMA.OH). Buffered TMA.TFA remained at a constant pH for at least 1 year and its refractive index indicated a loss of only 2-3% of the solutes over the same period.
TMA.TCA is ideally prepared by neutralizing highly concentrated TCA (~9.3M, or ~1.5 g/ml) with TMA.OH. […] This is ideally avoided since the efficiency of hybridization falls as the pH becomes less neutral. […] From the mass, volume and concentration of starting materials, and the volume of the final solution, the nominal concentration of the final product was calculated to be about 3M.

[3] = target: Proteinase K (Parengyodontium album, UniProt P06873); test: Proteinase K activity (digestion of 14C-labeled BSA); assay type: biochemical
Protocol: Prior to empirical determination, it could not be predicted whether addition of the GuSCN to TMA.TFA would produce a reagent with the capability of controlling nucleases. The extent of Proteinase K activity in GT^3 was assayed by determining its ability to digest (solubilize) ^14 C-labeled bovine serum albumin (BSA).
These experiments were done twice, and the percentages below are the averages of the two experiments; the numbers in parentheses are the experimental variations.

Sequence of Proteinase K (P06873 106-384): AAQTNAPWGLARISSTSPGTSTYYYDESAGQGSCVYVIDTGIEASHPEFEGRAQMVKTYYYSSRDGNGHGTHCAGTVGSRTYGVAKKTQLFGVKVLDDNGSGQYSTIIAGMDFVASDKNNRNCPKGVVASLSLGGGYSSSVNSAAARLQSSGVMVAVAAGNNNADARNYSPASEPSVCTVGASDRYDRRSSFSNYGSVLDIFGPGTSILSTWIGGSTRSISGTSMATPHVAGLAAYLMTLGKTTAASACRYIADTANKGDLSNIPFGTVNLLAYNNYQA

Structure (SMILES): C[N+](C)(C)C [TMA.TFA, Tetramethyammonium:Trifluoroacetate]
RNase A inhibition [1]: relatively ineffective in inactivating RNase
RNase inactivated ([1]; with Proteinase K 2.5 mg/ml): 92%
RNase inactivated ([1]; without the protease): 73%
time at constant pH ([2]; buffered solution): at least 1 year

% RNase inhibition ([1]; RNase A 0.00 ug/ml): 100%
% RNase inhibition ([1]; RNase A 0.13 ug/ml): 100%
% RNase inhibition ([1]; RNase A 1.25 ug/ml): 100%
% RNase inhibition ([1]; RNase A 4.17 ug/ml): 100%
% RNase inhibition ([1]; RNase A 12.50 ug/ml): 100%
% BSA solubilized ([3]; Proteinase K in reagent): 41% (+/-10%)
half-life of Proteinase K activity ([3]; incubation at 37° C. in reagent): less than an hour
Structure (SMILES): N=C(N)N [GuSCN, Guanidinium thiocyanate]

Structure (SMILES): C[N+](C)(C)C [TMA.TCA, Tetramethyammonium:Trichloroacetate]
Proteinase K activity in reagent [3]: advantageously active
pH stability ([2]; buffered with phosphate (0.1M) and borate (0.1M)): at least one month
